In article PMC8694143 (Microbiology Spectrum, 2021):
Values after ≈ are worked out from the molar mass of the structure shown. “Also recorded” adds a separate entry of the source. Blank lines part the entries; values can stand above or below the compound they belong to. Non-standard residues stand in square brackets, D forms with d. Residues, ends and D or L forms follow the SMILES beside them. No end group written: not given here.

What was measured:
MRSA ATCC 33592 = experiment: MIC determination in broth; format: cell-based, Staphylococcus aureus; conditions: for MIC (μg/mL) for MRSA ATCC 33592: Table 1 and text; for MIC (μg/mL) for MRSA ATCC 33592 / MIC, S. aureus ATCC 33592 (SCCmec III): cation-adjusted MH broth, ~10^5 CFU/mL, 37°C, 16 h; for MIC, S. aureus ATCC 33592 (SCCmec III): Table S5, STIP3 variants, highest conc. tested 100 μg/mL, 2-fold dilution series
Experimental: (§1) M. luteus ATCC 4698, S. aureus ATCC 29213, a panel of 7 MRSA (ATCC MP-2) strains, which includes ATCC BAA-41, BAA-42, BAA-44, BAA-1683, BAA-2094, BAA-2313, and 33592, and a series of additional bacterial isolates from human and veterinary cases were used in this study (Table S6). Bacterial strains were routinely grown in lysogeny broth (LB: 10 g/L tryptone, 5 g/L yeast extract, 10 g/L NaCl) at 30°C (M. luteus) or 37°C (Staphylococcus spp.) prior to use in specific experiments described below.
(§2) The MICs were measured for bioactive peptides identified from the initial screen. Cation-adjusted Mueller-Hinton (MH) broth was used as the growth medium for MIC determination experiments. Bacterial cultures were diluted to an OD of 5 × 10^−4 (∼10^5 CFU/mL) in 200 μL MH broth mixed with peptides in a 2-fold dilution series arrayed in 96-well plates. Plates were incubated without shaking at 30 or 37°C depending on the organism.

MRSA ATCC BAA-1683 = experiment: MIC determination in broth; format: cell-based, Staphylococcus aureus; conditions: STIP3 variants, highest conc. tested 100 μg/mL; cation-adjusted MH broth, ~10^5 CFU/mL, 2-fold dilution series, 37°C, 16 h
Experimental: as §1, §2

MRSA ATCC BAA-2094 = experiment: MIC determination in broth; format: cell-based, Staphylococcus aureus; conditions: STIP3 variants, highest conc. tested 100 μg/mL; cation-adjusted MH broth, ~10^5 CFU/mL, 2-fold dilution series, 37°C, 16 h
Experimental: as §1, §2

MRSA ATCC BAA-2313 = experiment: MIC determination in broth; format: cell-based, Staphylococcus aureus; conditions: STIP3 variants, highest conc. tested 100 μg/mL; cation-adjusted MH broth, ~10^5 CFU/mL, 2-fold dilution series, 37°C, 16 h
Experimental: as §1, §2

MRSA ATCC BAA-41 = experiment: MIC determination in broth; format: cell-based, Staphylococcus aureus; conditions: STIP3 variants, highest conc. tested 100 μg/mL; cation-adjusted MH broth, ~10^5 CFU/mL, 2-fold dilution series, 37°C, 16 h
Experimental: as §1, §2

MRSA ATCC BAA-42 = experiment: MIC determination in broth; format: cell-based, Staphylococcus aureus; conditions: STIP3 variants, highest conc. tested 100 μg/mL; cation-adjusted MH broth, ~10^5 CFU/mL, 2-fold dilution series, 37°C, 16 h
Experimental: as §1, §2

MRSA ATCC BAA-44 = experiment: MIC determination in broth; format: cell-based, Staphylococcus aureus; conditions: STIP3 variants, highest conc. tested 100 μg/mL; cation-adjusted MH broth, ~10^5 CFU/mL, 2-fold dilution series, 37°C, 16 h
Experimental: as §1, §2

S. aureus ATCC 29213 = experiment: MIC determination in broth; format: cell-based, Staphylococcus aureus; conditions: STIP3 variants, highest conc. tested 100 μg/mL; cation-adjusted MH broth, ~10^5 CFU/mL, 2-fold dilution series, 37°C, 16 h
Experimental: as §1, §2

[1] = Circular dichroism spectroscopy; format: physicochemical; conditions: CD, 50% TFE (vol/vol), peptide 0.2 mg/mL, room temperature
Experimental: Peptides were dissolved in ultrapure water or 50% TFE (vol/vol) at a concentration of 0.2 mg/mL for spectroscopy. Spectra of samples in a 1 mm pathlength quartz cuvette were recorded from 180 to 260 nm at 0.5 nm steps using an Applied Photophysics Chirascan Plus CD spectrophotometer operating at room temperature.

M. luteus ATCC 4698 = experiment: MIC determination in broth; format: cell-based, Micrococcus luteus; conditions: cation-adjusted MH broth, ~10^5 CFU/mL, 30°C, 48 h
Experimental: as §1, §2

S. aureus = experiment: MIC of STIP3-1 alanine variants in liquid broth; format: cell-based, Staphylococcus aureus; conditions: for Activity against S. aureus in nutrient broth: at 200 μg/mL; for MIC, S. aureus (alanine substituted STIP3-1, liquid broth): Table S4, maximum concentration tested 200 μg/mL, strain not given
Experimental: The MICs were measured for bioactive peptides identified from the initial screen. […] […] Plates were incubated without shaking at 30 or 37°C depending on the organism.

SspA [2] = experiment: SspA protease in 100 mM HEPES (pH 7.8); conditions: Staphylococcus aureus (staphylococcal secreted protease), 37°C, up to 5 h
SspA [3] = experiment: SspA protease resuspended at 2 mg/mL in 100 mM HEPES (pH 7.8); conditions: 37°C, up to 5 h

Compound: CC[C@@H](C)[C@@H](NC(=O)[C@@H](Cc1c[nH]c2ccccc12)NC(=O)[C@@H](CCCCN)NC(=O)[C@H](NC(=O)[C@@H](CC(C)C)NC(=O)CNC(=O)CNC(=O)[C@H](NC(=O)[C@H](N)[C@H](C)O)C(C)C)C(C)C)C(=O)N[C@H](CC(C)C)C(=O)N[C@H](CCCCN)C(=O)N[C@@H](C(=O)N[C@@H](C(=O)N[C@H](CCCCN)C(=O)N[C@H](CCCCN)C(=O)N[C@H](Cc1ccccc1)C(=O)N[C@H](C)C(N)=O)C(C)C)[C@H](C)O [D-STIP3-29] (H-[dT][dV]GG[dL][dV][dK][dW][dI][dL][dK][dT][dV][dK][dK][dF][dA]-NH2; N-terminus assumed)
- MIC (μg/mL) for MRSA ATCC 33592 (MRSA ATCC 33592): 6.25 µg/mL
- MIC, S. aureus ATCC 33592 (SCCmec III) (MRSA ATCC 33592): 6.25 µg/mL (≈ 3.31 µM)
- MIC, S. aureus ATCC BAA 1683 (SCCmec IV) (MRSA ATCC BAA-1683): 6.25 µg/mL (≈ 3.31 µM)
- MIC, S. aureus ATCC BAA 2094 (SCCmec V) (MRSA ATCC BAA-2094): 6.25 µg/mL (≈ 3.31 µM)
- MIC, S. aureus ATCC BAA 2313 (SCCmec XI) (MRSA ATCC BAA-2313): 6.25 µg/mL (≈ 3.31 µM)
- MIC, S. aureus ATCC BAA 41 (SCCmec II) (MRSA ATCC BAA-41): 6.25 µg/mL (≈ 3.31 µM)
- MIC, S. aureus ATCC BAA 42 (SCCmec VI) (MRSA ATCC BAA-42): 6.25 µg/mL (≈ 3.31 µM)
- MIC, S. aureus ATCC BAA 44 (SCCmec I) (MRSA ATCC BAA-44): 12.5 µg/mL (≈ 6.62 µM)
- MIC, S. aureus ATCC 29213 (S. aureus ATCC 29213): 6.25 µg/mL (≈ 3.31 µM)
- α-Helical content (%) [1]: 47%

Compound: CC[C@H](C)[C@H](NC(=O)[C@H](Cc1c[nH]c2ccccc12)NC(=O)[C@@H](CCCCN)NC(=O)[C@@H](NC(=O)[C@H](CC(C)C)NC(=O)CNC(=O)CNC(=O)[C@@H](NC(=O)[C@@H](N)[C@@H](C)O)C(C)C)C(C)C)C(=O)N[C@@H](CC(C)C)C(=O)N[C@H](CCCCN)C(=O)N[C@H](C(=O)N[C@H](C(=O)N[C@@H](CCCCN)C(=O)N[C@H](CCCCN)C(=O)N[C@@H](Cc1ccccc1)C(=O)N[C@@H](C)C(N)=O)C(C)C)[C@@H](C)O [STIP3-29-D3] (H-TVGGLV[dK]WIL[dK]TVK[dK]FA-NH2; N-terminus assumed)
- Increase of the MIC relative to STIP3-29 (MRSA ATCC 33592; D-Lys substituted variants): inactivation
- MIC (μg/mL) for MRSA ATCC 33592 (MRSA ATCC 33592): >100 µg/mL
- MIC, S. aureus ATCC 33592 (SCCmec III) (MRSA ATCC 33592): > (The > symbol indicates that no inhibition was observed at 100 μg/mL for the STIP3 variants)
- MIC, S. aureus ATCC 29213 (S. aureus ATCC 29213): > (The > symbol indicates that no inhibition was observed at 100 μg/mL for the STIP3 variants)
- α-Helical content (%) [1]: 32%

Compound: AVGGLVKWILDTVKKFA [T1A]
- MIC, M. luteus (M. luteus ATCC 4698): 12.5 µg/mL
- Activity against S. aureus in nutrient broth (S. aureus): maintained activity

- fragment found (SspA [2]): IIGTIND; also recorded: LIKWIAD
- cleaved bond (SspA [3]): D-L and D-T
- fragment found (SspA [3]): KYKK and LIKWIADTVE
Compound: IIGTINDLIKWIADTVEKYKK

- fragment found (SspA [2]): IISTIGDLIKWIID; also recorded: TVKKFKK
- cleaved bond (SspA [3]): D-T
Compound: IISTIGDLIKWIIDTVKKFKK

- cleaved bond (SspA [3]): E-T and E-F
Compound: IISTIVEFVKLIAETIAKFMK
- fragment found (SspA [2]): IISTIVE; also recorded: FVKLIAETIAKFMK; also recorded: TIAKFMK

- fragment found (SspA [2]): TVKKFA
- cleaved bond (SspA [3]): D-T
Compound: IVETVGGLVKWILDTVKKFA
- fragment found (SspA [3]): IVE and TVGGLVKWILDTVKKFA and TVGGLVKWILD

Compound: TVGGLVKWILATVKKFA [STIP3-2]
- MIC, S. aureus ATCC 33592 (SCCmec III) (MRSA ATCC 33592): 50 µg/mL
- MIC, S. aureus ATCC BAA 1683 (SCCmec IV) (MRSA ATCC BAA-1683): 50 µg/mL
- MIC, S. aureus ATCC BAA 2094 (SCCmec V) (MRSA ATCC BAA-2094): 50 µg/mL
- MIC, S. aureus ATCC BAA 2313 (SCCmec XI) (MRSA ATCC BAA-2313): 50 µg/mL
- MIC, S. aureus ATCC BAA 41 (SCCmec II) (MRSA ATCC BAA-41): 100 µg/mL
- MIC, S. aureus ATCC BAA 42 (SCCmec VI) (MRSA ATCC BAA-42): 50 µg/mL
- MIC, S. aureus ATCC BAA 44 (SCCmec I) (MRSA ATCC BAA-44): 100 µg/mL
- MIC, S. aureus ATCC 29213 (S. aureus ATCC 29213): 100 µg/mL
- MIC, M. luteus (M. luteus ATCC 4698): 3.13 µg/mL
- MIC, S. aureus (alanine substituted STIP3-1, liquid broth) (S. aureus): 100 µg/mL
- Activity against S. aureus in nutrient broth (S. aureus): maintained activity

Compound: TVGGLVKWILDAVKKFA [T12A]
- MIC, M. luteus (M. luteus ATCC 4698): 12.5 µg/mL
- MIC, S. aureus (alanine substituted STIP3-1, liquid broth) (S. aureus): 100 µg/mL
- Activity against S. aureus in nutrient broth (S. aureus): maintained activity

Compound: TVGGLVKWILDTAKKFA [V13A]
- MIC, M. luteus (M. luteus ATCC 4698): 50 µg/mL
- Activity against S. aureus in nutrient broth (S. aureus): maintained activity

- fragment found (SspA [2]): TVGGLVKWILD; also recorded: TVKKFA
- cleaved bond (SspA [3]): Asp11-T12
Compound: TVGGLVKWILDTVKKFA
